This is an account of results in publication PMC6689897, “Drugging an undruggable pocket on KRAS” (Proceedings of the National Academy of Sciences of the …, 2019).

Several values for one entry are separate records, joined by “and”; a condition that tells them apart may be missing. Identical values can stand only once. Like-named read-outs stand apart in the source and are kept apart here.

In one assay the test system is NCI-H358 cells. Put plainly: RAS GTP detection (Ras G-LISA activation assay). The format is cell-based, human. Particulars: for steady-state RAS GTP levels: high growth factor conditions; for formation of GTP-loaded KRAS / RAS GTP levels: starved 24 h low serum, 2 h compound, then EGF. On the procedure: When we incubated NCI-H358 cells with 50 µM 1 for 1 h, as previously observed, no change in GTP-KRAS was observed. In contrast, 20 µM ARS-1620 caused an 80% reduction of the GTP-bound RAS pool. When the 2 compounds were combined, only a 30% reduction of GTP-RAS was observed, which is in line with inhibiting the binding of GAPs with KRAS (Fig. 6D). […]
332 RAS GTP detection (Ras G-LISA Activation assay):
333 Ras-GTP levels were analyzed using a Ras G-LISA assay kit (Cytoskeleton Inc.,
335 600.000 cells were seeded in 6 wells and grown to 70% confluence. Cells were washed
337 provided protease inhibitor cocktail. Lysates were quickly frozen in liquid nitrogen
338 and stored at -80°C until further usage. After normalizing protein concentration, 40µg
339 of protein was added in duplicates to wells of the Ras G-LISA plate coated with Ras
340 GTP-binding protein and incubated at 4°C for 30 minutes while shaking at 400rpm.
341 After washing, antigen presenting buffer was added for 2 minutes. To measure bound
342 Ras GTP levels, wells were subsequently incubated with an anti-Ras primary antibody
343 (1:50) followed by a HRP-labeled secondary antibody (1:500) and finally by adding a
344 HRP detection reagent. Absorbance was measured by 490nm using an EnSpire
345 Multimode Reader (Perkin Elmer). Background was determined by a negative control
346 well and subtracted from all samples. […]

The next assay has as its target GCP-HRASwt (Homo sapiens, UniProt P01112). In words: ITC. The format is binding. Particulars: 25°C. On the procedure: (§1) 80 difference spectrum. Mixtures of four fragments (each at 250 µM) were incubated in 25
(§2) 82 a mixture of GCP-KRASG12D and GDP-KRASG12V (each 4 µM). Binders were identified
(§3) 83 by comparing pre-recorded reference spectra with the STD difference spectrum.
(§4) 84 Deconvolution and confirmation of primary FBS hits obtained from STD-NMR and
(§5) 85 MST was performed using 2D 1H/15N TROSY NMR experiments(2) collected on a
(§6) 86 Bruker Avance III 600 MHz spectrometer equipped with a 5 mm z-gradient TCI cryo-
(§7) 87 probe. Samples were prepared directly before data acquisition using a Tecan Freedom
(§8) 88 Evo pipetting system and delivered by a Bruker Sample Rail to the magnet. Each sample
(§9) 89 contained either 50 µM 15N labeled GDP-KRASG12D or GCP-KRASG12D in 25 mM Tris-
(§10) 90 d11, 100 mM NaCl, 2 mM MgCl2, 0.5 mM TCEP pH 7.4 and 8% (v/v) D2O. Proteins
(§11) 91 were incubated with 500 µM fragment in a 2.5 mm NMR tube at 298K and 1%
(§12) 92 d6DMSO. Spectra were recorded with 32 transients and 64 data points in the indirect
(§13) 93 dimension. Processing and analysis were accomplished with Topspin 3.0 (Bruker
(§14) 94 BioSpin). Binders were identified by manual comparison of spectra in the presence of a
(§15) 95 fragment and the respective reference spectrum. All confirmed binders to 15N labeled
(§16) 96 GDP-KRASG12D show also chemical shift perturbations in the presence of 15N labeled
(§17) 97 GDP-KRASG12V and are therefore non-selective.
(§18) 98 Measurement of dissociation constants KD for the compounds synthesized. NMR
(§19) 99 was initially the only method that could provide K Ds for the weakly binding molecules to
(§20) 100 support compound optimization. 1H/15N SoFast HMQC experiments(3) were recorded in
(§21) 101 3mm NMR tubes (170µL filling) at a protein concentration of 70-100µM. Spectra were
(§22) 102 recorded on a Avance III 700MHz spectrometer equipped with a cryogenically cooled
(§23) 103 5mm TCI probe and 48 scans, 128 f1 increments and 2k data points in f2. Total
(§24) 104 acquisition time was 22 minutes. 4 – 6 titration points were performed w ith individual
(§25) 105 samples for each titration point made from 50mM DMSO -d6 stock solutions. Total
(§26) 106 DMSO-d6 concentration was kept constant by backfilling every sample to a total of 4%
(§27) 107 DMSO. KDs were calculated from the differences in chemical shift induced by t he small
(§28) 108 molecules upon interacting with the protein. Average chemical shifts from the 1H and 15N
(§29) 109 dimension were calculated according to the following equation:
(§30) 110 ∆δobs = √[δH2 + (α ∙δN)2] with α set to 0.14
(§31) 111 The Δδobs values at the respective ligand concentrations and the total concentration
(§32) 112 of protein allow a fit to the KD value of the ligand as long as it is binding under fast
(§33) 113 exchange conditions as was the case for most of the compounds tested.(4) Usually Δδobs
(§34) 115 following equation was used to determine the individual KDs:
(§35) 116 ∆δobs = ∆δmax [([P]t + [L]t + KD) − [([P]t + [L]t + KD)2 − 4([P]t[L]t)]1/2]/2[P]t
(§36) 119 Calorimetric experiments were performed on a Microcal PEAQ-ITC calorimeter
(§37) 120 (MicroCalTM, LLC Northampton, MA). Protein solutions were measured in 20 mM
(§38) 121 HEPES, 150 mM NaCl, 3% DMSO, pH 7.5. All measurements were carried out at 25°C.
(§39) 122 Titrations were performed in inverse mode. The cell was loaded with compound solutions
(§40) 123 in the range of 10 to 100 µM. All injections were performed using an initial injection of
(§41) 124 0.5 μL followed by 19 injections of 2 μL of protein in the range of 130-500 µM. The data
(§42) 125 were analyzed with the MicroCal PEAQ-ITC analysis software package. The first data
(§43) 126 point was excluded from the analysis. Thermodynamic parameters were calculated (ΔG =
(§44) 127 ΔH - TΔS = -RTlnKB, where ΔG, ΔH and ΔS are the changes in free energy, enthalpy and
(§45) 128 entropy of binding, respectively).
(§46) 130 Protein purification, nucleotide exchange and crystallization
(§47) 131 The KRAS construct, based on uniprot identifier P01116 -2 (KRAS4-B) amino acids
(§48) 134 G12V) were expressed with an N-terminal His6-tag followed by a TEV (tobacco etch

The next assay deals with GCP-KRASG12D (Homo sapiens, UniProt P01116, G12D). Put plainly: ITC. The format is binding. On the procedure: as §1, §2, §3, §4, §5, §6, §7, §8, §9, §10, §11, §12, §13, §14, §15, §16, §17, §18, §19, §20, §21, §22, §23, §24, §25, §26, §27, §28, §29, §30, §31, §32, §33, §34, §35, §36, §37, §38, §39, §40, §41, §42, §43, §44, §45, §46, §47, §48

A further assay has as its target GCP-NRASwt (Homo sapiens, UniProt P01111, C118S). In words: ITC. The format is binding. Particulars: 25°C. On the procedure:
as §1, §2, §3, §4, §5, §6, §7, §8, §9, §10, §11, §12, §13, §14, §15, §16, §17, §18, §19, §20, §21, §22, §23, §24, §25, §26, §27, §28, §29, §30, §31, §32, §33, §34, §35, §36, §37, §38, §39, §40, §41, §42, §43, §44, §45, §46, §47, §48

In a further assay the target is GDP-HRASwt (Homo sapiens, UniProt P01112). In words: ITC. The format is binding. The settings on record: 25°C. On the procedure:
as §1, §2, §3, §4, §5, §6, §7, §8, §9, §10, §11, §12, §13, §14, §15, §16, §17, §18, §19, §20, §21, §22, §23, §24, §25, §26, §27, §28, §29, §30, §31, §32, §33, §34, §35, §36, §37, §38, §39, §40, §41, §42, §43, §44, §45, §46, §47, §48

The target of another assay is GDP-KRASG12D (Homo sapiens, UniProt P01116, G12D). In words: ITC. The format is binding. The settings on record: 25°C. On the procedure:
as §1, §2, §3, §4, §5, §6, §7, §8, §9, §10, §11, §12, §13, §14, §15, §16, §17, §18, §19, §20, §21, §22, §23, §24, §25, §26, §27, §28, §29, §30, §31, §32, §33, §34, §35, §36, §37, §38, §39, §40, §41, §42, §43, §44, §45, §46, §47, §48

The next assay addresses GDP-KRASwt (Homo sapiens, UniProt P01116). Put plainly: ITC. The format is binding. The settings on record: 25°C. On the procedure:
as §1, §2, §3, §4, §5, §6, §7, §8, §9, §10, §11, §12, §13, §14, §15, §16, §17, §18, §19, §20, §21, §22, §23, §24, §25, §26, §27, §28, §29, §30, §31, §32, §33, §34, §35, §36, §37, §38, §39, §40, §41, §42, §43, §44, §45, §46, §47, §48

For another assay, the target named is GDP-NRASwt (Homo sapiens, UniProt P01111, C118S). Put plainly: ITC. The format is binding. The settings on record: for Kd: 25°C. On the procedure:
as §1, §2, §3, §4, §5, §6, §7, §8, §9, §10, §11, §12, §13, §14, §15, §16, §17, §18, §19, §20, §21, §22, §23, §24, §25, §26, §27, §28, §29, §30, §31, §32, §33, §34, §35, §36, §37, §38, §39, §40, §41, §42, §43, §44, §45, §46, §47, §48

[1] abbreviates: 25°C, read-out: KD(ITC) GCP-KRASG12D.

Chain of GDP-NRASwt (P01111 1-172 C118S): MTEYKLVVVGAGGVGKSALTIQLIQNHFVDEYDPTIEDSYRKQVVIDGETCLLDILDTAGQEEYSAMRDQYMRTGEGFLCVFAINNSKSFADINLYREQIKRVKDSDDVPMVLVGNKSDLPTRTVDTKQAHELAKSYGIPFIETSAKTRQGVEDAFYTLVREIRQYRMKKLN
Chain of GCP-KRASG12D (P01116 1-169 isoform P01116-2 G12D): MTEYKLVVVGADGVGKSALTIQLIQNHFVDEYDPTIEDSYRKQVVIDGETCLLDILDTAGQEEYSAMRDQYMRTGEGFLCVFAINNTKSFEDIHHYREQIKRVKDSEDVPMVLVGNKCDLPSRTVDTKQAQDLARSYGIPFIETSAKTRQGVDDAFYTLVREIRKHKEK
Chain of GDP-HRASwt (P01112 1-166): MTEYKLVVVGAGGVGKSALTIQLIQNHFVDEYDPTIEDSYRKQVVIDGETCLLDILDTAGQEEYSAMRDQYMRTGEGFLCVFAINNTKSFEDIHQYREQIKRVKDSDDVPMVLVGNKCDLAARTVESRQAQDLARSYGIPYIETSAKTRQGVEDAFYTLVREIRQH
Chain of GCP-HRASwt (P01112 1-166): as above
Chain of GCP-NRASwt (P01111 1-172 C118S): as the sequence (P01111 1-172 C118S) above
Chain of GDP-KRASG12D (P01116 1-169 isoform P01116-2 G12D): as the sequence (P01116 1-169 isoform P01116-2 G12D) above
Chain of GDP-KRASwt (P01116 1-169 isoform P01116-2): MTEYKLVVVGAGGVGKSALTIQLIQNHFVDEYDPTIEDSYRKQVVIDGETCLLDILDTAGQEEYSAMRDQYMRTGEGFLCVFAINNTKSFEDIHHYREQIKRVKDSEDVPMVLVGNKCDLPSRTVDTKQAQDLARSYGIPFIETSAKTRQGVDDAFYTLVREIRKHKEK

With `C=CC(=O)N1CCN(c2ncnc3c(F)c(-c4c(O)cccc4F)c(Cl)cc23)CC1` [ARS-1620, reference compound], in the assay on NCI-H358 cells (20 µM ARS-1620), the “reduction of the GTP-bound RAS pool” value is on record as 80%. Besides, in the assay with NCI-H358 cells, the “steady-state RAS GTP levels” value is “strongly reduced” and the “formation of GTP-loaded KRAS / RAS GTP levels” value is given as “reduced the RAS GTP levels even below the DMSO control”.

`Cn1cnc(Cn2ccc3ccc(CNCc4[nH]c5ccccc5c4[C@H]4NC(=O)c5ccc(O)cc54)cc32)c1` [Compound 1]: the Kd (as a rule, a measure of binding affinity in units of concentration) is 0.57 µM on GCP-HRASwt; 0.74 µM on GCP-KRASG12D (setting [1]); 0.75 µM on GCP-KRASG12D (read-out: KD GTP-KRAS^G12D as measured by ITC); 1.3 µM on GCP-NRASwt; 2.5 µM at GDP-HRASwt; 2 µM on GDP-KRASG12D. Further, the Kd came out at 1.1 µM at GDP-KRASwt and 8.3 µM at GDP-NRASwt. The “selectivity window to inactive NRAS^wt” value on GDP-NRASwt is listed as 5- to 10 fold. In the assay on NCI-H358 cells (50 µM 1 combined with 20 µM ARS-1620), the “reduction of GTP-RAS” value stood at 30%. In the assay on NCI-H358 cells (50 µM 1 for 1 h), the “change in GTP-KRAS” value was “no change”. In the assay with NCI-H358 cells, the “steady-state RAS GTP levels” value is given as “does not change”. The “formation of GTP-loaded KRAS / RAS GTP levels” value with NCI-H358 cells was “dose-dependent inhibition”.

For the compound `CN(C)Cc1[nH]c2ccccc2c1[C@H]1NC(=O)c2ccc(O)cc21` [Compound 18], the Kd at GCP-HRASwt was 6.7 µM; at GCP-KRASG12D (setting [1]), 22 µM and 20 µM and 20.4 µM; at GCP-NRASwt, 33 µM; on GDP-HRASwt, 54 µM; at GDP-KRASG12D, 29 µM; on GDP-KRASwt, 15 µM. Also, binding on GDP-NRASwt was characterised by a dissociation constant (Kd) of 33 µM.
